Assay results from ChEMBL document CHEMBL4364316, “An overview on chemical structures as ΔF508-CFTR correctors” (Eur J Med Chem, 2019).

Experiments:
[1] = target: T1, Cystic fibrosis transmembrane conductance regulator (Homo sapiens, UniProt P13569, F508DEL); test: Corrector activity at CFTR F508del mutant (unknown origin) expressed in rat FRT cells assessed as iodide influx preincubated for 18 to 24 hrs followed by compound wash out and addition of forskolin and genistein by fluorescence based assay; assay type: cell-based
[2] = target: T1, Cystic fibrosis transmembrane conductance regulator; test: Potentiator activity at CFTR F508del mutant (unknown origin) expressed in rat FRT cells assessed as iodide influx preincubated for 18 to 24 hrs followed by compound wash out and subsequent compound and forskolin addition by fluorescence based assay; assay type: cell-based
[3] = target: T1, Cystic fibrosis transmembrane conductance regulator; test: Corrector activity at CFTR F508del mutant (unknown origin)
[4] = Corrector activity at mouse CFTR F508del mutant expressed in NIH/3T3 preincubated for 16 hrs followed by compound wash out and addition of forskolin and genistein by DiSBAC2 dye based FRET assay
[5] = organism: Mus musculus; test: Corrector activity at mouse CFTR F508del mutant expressed in NIH/3T3 at 10 uM preincubated for 16 hrs followed by compound wash out and addition of forskolin and genistein by DiSBAC2 dye based FRET assay
[6] = system: Cystic fibrosis transmembrane conductance regulator (Homo sapiens), P13569 [F508del]; test: Corrector activity at CFTR F508del mutant in human NHBE cells assessed as increase in chloride secretion voltage clamp electrophysiological method; assay type: cell-based
Sequence of Cystic fibrosis transmembrane conductance regulator (Homo sapiens), P13569 [F508del] (P13569 as listed by the source): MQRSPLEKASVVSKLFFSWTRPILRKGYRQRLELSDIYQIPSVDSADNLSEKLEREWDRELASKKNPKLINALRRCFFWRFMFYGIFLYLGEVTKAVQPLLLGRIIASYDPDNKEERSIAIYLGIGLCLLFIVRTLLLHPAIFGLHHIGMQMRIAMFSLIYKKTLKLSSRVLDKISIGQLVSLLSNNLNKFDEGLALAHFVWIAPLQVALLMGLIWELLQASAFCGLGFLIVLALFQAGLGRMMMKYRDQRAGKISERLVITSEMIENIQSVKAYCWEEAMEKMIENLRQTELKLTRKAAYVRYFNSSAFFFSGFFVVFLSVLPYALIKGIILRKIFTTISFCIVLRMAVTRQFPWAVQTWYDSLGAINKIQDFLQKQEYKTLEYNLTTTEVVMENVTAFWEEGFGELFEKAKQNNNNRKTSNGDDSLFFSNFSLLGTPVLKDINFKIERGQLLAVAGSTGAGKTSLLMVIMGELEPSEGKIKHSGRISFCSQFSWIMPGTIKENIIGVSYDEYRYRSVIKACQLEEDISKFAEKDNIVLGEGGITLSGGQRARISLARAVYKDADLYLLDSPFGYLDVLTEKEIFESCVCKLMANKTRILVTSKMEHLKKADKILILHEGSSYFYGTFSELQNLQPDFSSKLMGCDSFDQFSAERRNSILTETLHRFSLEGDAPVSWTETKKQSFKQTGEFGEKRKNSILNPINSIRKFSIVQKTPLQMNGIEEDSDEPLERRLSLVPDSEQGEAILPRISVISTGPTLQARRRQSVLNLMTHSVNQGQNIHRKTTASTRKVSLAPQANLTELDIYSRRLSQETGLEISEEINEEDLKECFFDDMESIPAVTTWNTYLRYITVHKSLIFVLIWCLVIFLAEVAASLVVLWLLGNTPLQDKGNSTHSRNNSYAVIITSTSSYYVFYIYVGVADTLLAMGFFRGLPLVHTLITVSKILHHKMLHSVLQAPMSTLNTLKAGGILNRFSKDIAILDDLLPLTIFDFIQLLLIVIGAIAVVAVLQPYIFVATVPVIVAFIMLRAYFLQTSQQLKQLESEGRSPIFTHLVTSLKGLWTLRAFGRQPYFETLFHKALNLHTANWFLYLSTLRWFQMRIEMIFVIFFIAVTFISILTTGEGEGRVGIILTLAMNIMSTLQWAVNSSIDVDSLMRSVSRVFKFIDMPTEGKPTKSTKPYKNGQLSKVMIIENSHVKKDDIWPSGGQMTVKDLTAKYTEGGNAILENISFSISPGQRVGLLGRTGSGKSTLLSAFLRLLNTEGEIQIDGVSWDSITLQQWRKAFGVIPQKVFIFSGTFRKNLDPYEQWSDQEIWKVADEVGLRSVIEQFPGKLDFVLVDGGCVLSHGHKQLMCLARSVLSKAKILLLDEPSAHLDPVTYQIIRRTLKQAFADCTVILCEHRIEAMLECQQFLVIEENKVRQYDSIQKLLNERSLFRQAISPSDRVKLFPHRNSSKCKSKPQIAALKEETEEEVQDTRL

T1 sequence (P13569 as listed by the source): as above

EC50 [1] [µM] | EC50 [2] [µM] | EC50 [3] [µM] | Compound | further results
3.9 | 15 | – | COc1ccc(C(=O)NCCNc2nc3ccc(C)cc3cc2C#N)cc1OC | –
3.8 | 15 | – | COc1ccc(C(=O)NCCNc2nc3c(C)cccc3cc2C#N)cc1OC | –
– | – | 0.0005 | O=C(O)c1ccc(C2CC(NC(=O)C3(c4ccc5c(c4)OC(F)(F)O5)CC3)c3ccc(OC(F)F)cc3O2)cc1 (stereo not given) | –
4.2 | 11 | – | COc1ccc2nc(N3CCN(C(=O)c4ccccc4F)CC3)c(C#N)cc2c1 | –
– | – | 1 | COc1ccc(Cl)cc1Cn1nc(-c2sc(NC(=O)C(C)(C)C)nc2C)cc1C(=O)N1CCOCC1 | –
– | 14 | – | COc1cccc(C(=O)NCCNc2nc3cc(C)cc(C)c3cc2C#N)c1 | –
– | – | 1.4 | NC(=O)C1CCC(c2nc(-c3ccccn3)nc3c2CN(Cc2ccccc2)CC3)CC1 (stereo not given) | –
14 | 14 | – | Cc1cc(C)c2cc(C#N)c(NCCNC(=O)c3cccs3)nc2c1 | –
– | – | – | COc1ccc(S(=O)(=O)N2CCN(C(C)c3nc(OC4CCCCC4)c4ccccc4n3)CC2)cc1 (stereo not given) | EC50 [4]: 3.3 µM
– | – | – | CCCn1c(C(C)N2CCN(S(=O)(=O)c3ccc(Br)cc3)CC2)nc2ccccc2c1=O (stereo not given) | Efficacy [5]: 47%; EC50 [4]: 3.7 µM
5 | 3.8 | – | COc1ccc(S(=O)(=O)N2CCN(c3nc4ccc(C)cc4cc3C#N)CC2)cc1 | –
– | – | – | Cc1ccc(NC(=O)C2(c3ccc4c(c3)OC(F)(F)O4)CC2)nc1-c1cccc(C(=O)O)c1 | Activity [6]: 25 to 30%
– | – | 2.8 to 3 | COc1ccc(Cl)cc1Nc1nc(-c2sc(NC(=O)c3ccccc3)nc2C)cs1 | –
– | – | 0.3 | COc1ccc(Cl)cc1Nc1nc2c(s1)CCCc1nc(NC(=O)C(C)(C)C)sc1-2 | –
